Where two headings read alike, the source gives them in different places.
Experiments:
[1] = Wall et al., J. Nat. Prod. 1989; cited from earlier work
[2] = test system: progesterone receptor (PR-TI); assay: Antagonist activity on progesterone receptor, CV-1 cells cotransfected with pRShPR-B altered at Tau-1 (PR-TI); assay type: cell-based, human; details: Table 2, CV-1 cells PR-TI
Text: (§1) In the co-transfection assay, a cloned gene for an intracellular receptor (e.g., androgen receptor) is introduced by transfection (a procedure to induce cells to take up foreign genes) into a background cell substantially devoid of endogenous intracellular receptors. This introduced gene directs the recipient cells to make the intracellular receptor protein. A second gene is also introduced (co-transfected) into the same cells in conjunction with the intracellular receptor gene. This second gene functions as a reporter for the transcription-modulating activity of the target intracellular receptor. Thus, the reporter acts as a surrogate for the products normally expressed by a gene under control of the target receptor and its natural hormone. A preferred reporter gene is one which expresses the firefly enzyme luciferase.
(§2) The co-transfection assay can detect small molecule agonists or antagonists of target intracellular receptors. Exposing the cells to an agonist ligand increases reporter activity in the transfected cells. This activity can be conveniently measured, e.g., by increasing luciferase production, which reflects ligand-dependent, intracellular receptor-mediated increases in reporter transcription. To detect antagonists, the co-transfection assay is carried out in the presence of a constant concentration of an agonist (e.g., for androgen receptor, dihydrotestosterone) known to induce a defined reporter signal. Increasing concentrations of a test antagonist will decrease the reporter signal (e.g., luciferase production). The co-transfection assay is therefore useful to detect both agonists and antagonists of specific intracellular receptors. It determines not only whether a compound interacts with a particular intracellular receptor, but whether this interaction mimics (agonizes) or blocks (antagonizes) the effects of the natural regulatory molecules on target gene expression, as well as the specificity and strength of this interaction.
(§3) Co-transfected cells are exposed to a medium to which is added the potential ligand (compound) that is being evaluated. If the candidate compound diffuses into the cell, binds to the receptor, and the resulting receptor complex functions as an agonist, it will subsequently bind to the co-transfected reporter gene and initiate transcription. Typically, the reporter gene is one that expresses luciferase, which is capable of catalyzing a light-emitting reaction with its substrate luciferin. Thus, after cell lysis and the introduction of luciferin, the amount of light produced relative to the concentration of candidate compound used in the assay provides a measure of the potency and efficacy of the compound tested. Antagonist activity is evaluated by adding the candidate ligand and a known agonist to the co-transfected cells.
The specific activity of Compounds A-J was compared relative to their antagonist activity on the human progesterone receptor (PR) utilizing CV-1 cells cotransfected with plasmid pRShPR-B, as altered at the Tau-1 location (e.g., PR-TI)[specifically, hPR-B was excised from the vector pGEM3Z (69 Cell 703 (1992)); the Tau-1 fragment of the gluccocorticoid receptor was inserted into hPR-B at the unique HincII site in the N-terminal region; a Bst EII to BST bI fragment spanning the Tau-1 insertion was then used to replace the corresponding region in pRShPR-B]. […] Potency or IC50 is as reported for AR-wt transfected CV-1 cells.

[3] = molecular target: T1, androgen receptor (Homo sapiens, UniProt P10275); assay: Co-transfection androgen antagonist assay (CV-1 cells, pRShAR, MTV-LUC reporter; AR-wt); assay type: cell-based
T1 construct: expressed in transfected cells; host or cells: CV-1 (monkey kidney fibroblast) cells, plasmid pRShAR, with reporter plasmid MTV-LUC
T1 sequence (P10275 1-920): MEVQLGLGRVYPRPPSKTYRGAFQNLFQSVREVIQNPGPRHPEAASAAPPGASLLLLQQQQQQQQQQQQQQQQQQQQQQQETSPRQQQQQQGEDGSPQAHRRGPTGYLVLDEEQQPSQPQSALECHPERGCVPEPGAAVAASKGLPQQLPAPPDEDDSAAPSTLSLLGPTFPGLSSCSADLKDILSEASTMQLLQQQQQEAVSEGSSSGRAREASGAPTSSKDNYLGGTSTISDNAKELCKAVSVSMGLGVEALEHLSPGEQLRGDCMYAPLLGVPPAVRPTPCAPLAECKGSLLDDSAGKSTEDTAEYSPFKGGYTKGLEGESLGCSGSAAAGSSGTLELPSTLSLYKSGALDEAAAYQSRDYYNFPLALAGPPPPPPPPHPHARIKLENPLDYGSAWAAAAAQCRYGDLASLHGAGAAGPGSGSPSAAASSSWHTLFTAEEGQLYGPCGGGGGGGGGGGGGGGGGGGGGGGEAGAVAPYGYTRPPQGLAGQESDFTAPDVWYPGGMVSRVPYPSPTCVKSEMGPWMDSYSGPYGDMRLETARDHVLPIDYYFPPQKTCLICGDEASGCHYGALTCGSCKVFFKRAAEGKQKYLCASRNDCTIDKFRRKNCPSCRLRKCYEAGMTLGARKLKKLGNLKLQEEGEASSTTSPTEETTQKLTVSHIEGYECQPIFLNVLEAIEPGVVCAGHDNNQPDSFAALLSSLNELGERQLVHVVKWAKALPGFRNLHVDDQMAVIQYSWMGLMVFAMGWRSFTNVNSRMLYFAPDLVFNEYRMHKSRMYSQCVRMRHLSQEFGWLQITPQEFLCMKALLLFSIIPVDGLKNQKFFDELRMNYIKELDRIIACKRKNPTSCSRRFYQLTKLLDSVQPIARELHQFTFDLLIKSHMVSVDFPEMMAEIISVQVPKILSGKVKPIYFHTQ
Text: The co-transfection assay provides a method for identifying functional ligands (either agonists which mimic, or antagonists which inhibit, the effect of hormones), and quantifying their activity for ligand-responsive receptor proteins. In this regard, the co-transfection assay mimics an in vivo system in the laboratory. Importantly, activity in the co-transfection assay correlates very well with known in vivo activity, such that the co-transfection assay functions as a quantitative predicator of a tested compounds in vivo pharmacology. See, e.g., T. Berger et al. 41 J. Steroid Biochem. Molec.
as §1, §2
as §3, with “cells. […]” for “cells.”

Compound	antimutagenic activity [1]	Efficacy, PR-TI (% maximal response) ([2]; comparable to that found with RU-486)	IC50 ([2]; read-out: Potency, PR-TI (IC50))	Emax ([3]; CV-1, Table 1, androgen antagonists, relative to 2-Hydroxy-flutamide, read-out: Efficacy (% maximal response relative to 2-Hydroxy-flutamide))	IC50 ([3]; Table 1, androgen antagonists, read-out: Potency (IC50, concentration required to reduce the maximal response by 50%))	Emax ([3]; Table 2, CV-1 cells AR-wt, read-out: Efficacy, AR-wt)
4-isocymobarbatol	highly active antimutagens					
C=C1[C@@H](Cc2cc(OC)c(Br)cc2O)C(C)(C)CC[C@]1(C)O [J, (1S,3S)-1-Hydroxy-2-methylidene-3-(2'-hydroxy-4'-bromo-5'-methoxyphenyl)methyl-1,4,4-trimethylcyclohexane]		95%	850 nM	85%	300 nM	85%
CC1(C)[C@@H](Br)CC[C@@]2(C)Oc3cc(Br)c(O)cc3C[C@@H]12 [cymobarbatol]	highly active antimutagens					
